Laboratory results reported in patent publication US9936701B2, “Herbicidal compounds” (Syngenta Participations AG, priority 2013, dated 2018).

Experiments:
[1] = test system: a variety of test species; test: Post-emergence herbicidal activity (glasshouse, sprayed after 8 days cultivation, evaluated after 13 days); type: in vivo; design: key: 5=total damage to plant; 0=no damage to plant; conditions: rate 1000 g/Ha, scale 0-5
Method: (§1) Seeds of a variety of test species were sown in standard soil in pots. After 8 days cultivation (post-emergence) under controlled conditions in a glasshouse (at 24/16° C., day/night; 14 hours light; 65% humidity), the plants were sprayed with an aqueous spray solution derived from the formulation of the technical active ingredient in acetone/water (50:50) solution containing 0.5% Tween 20 (polyoxyethelyene sorbitan monolaurate, CAS RN 9005-64-5). The test plants were then grown in a glasshouse under controlled conditions (at 24/16° C., day/night; 14 hours light; 65% humidity) and watered twice daily. After 13 days, the test was evaluated (5=total damage to plant; 0=no damage to plant).

[2] = test system: a variety of test species; test: Pre-emergence herbicidal activity (glasshouse, sprayed one day after sowing, evaluated after 13 days); type: in vivo; design: key: 5=total damage to plant; 0=no damage to plant; conditions: application pre-emergence, rate 1000 g/Ha, scale 0-5
Method: as §1, with “After” for “After 8 days”, “for one day (pre-emergence)” for “(post-emergence)”

Row | SMILES | ABUTH (Abutilon theophrasti) damage score, application post-emergence [1] | ALOMY (Alopecurus myosuroides) damage score, application post-emergence [1] | AMARE (Amaranthus retroflexus) damage score, application post-emergence [1] | ECHCG (Echinochloa crus-galli) damage score, application post-emergence [1] | SETFA (Setaria faberi) damage score, application post-emergence [1] | ZEAMX (Zea mays) damage score, application post-emergence [1] | Pre-emergence herbicidal damage score, ABUTH [2] | Pre-emergence herbicidal damage score, ALOMY [2] | Pre-emergence herbicidal damage score, AMARE [2] | Pre-emergence herbicidal damage score, ECHCG [2] | Pre-emergence herbicidal damage score, SETFA [2] | Pre-emergence herbicidal damage score, ZEAMX [2]
1 | CC1=C(I)C(=O)N(c2cc(C(C)(C)C)on2)[C@H]1O [A17] | 5 | 5 | 5 | 5 | 5 | 4 | 3 | 2 | 5 | 5 | 3 | 2
2 | CC(C)C1=C(Cl)C(=O)N(c2cc(C(C)(C)C)on2)C1O (stereo not drawn) [A18] | 5 | 5 | 4 | 5 | 5 | 3 | 4 | 4 | 1 | 2 | 3 | 1
3 | CCCC1=C(Cl)C(=O)N(c2cc(C(C)(C)C)on2)C1O (stereo not drawn) [A27] | 5 | 5 | 5 | 5 | 5 | 4 | 5 | 4 | 5 | 5 | 4 | 4
4 | CCOc1cc(N2C(=O)C(Cl)=C(C)C2O)no1 (stereo not drawn) [A32] | 5 | 2 | 2 | 5 | 2 | 2 | 4 | 2 | 1 | 3 | 1 | 1
5 | CCC(C)(CC#N)c1cc(N2C(=O)C(Cl)=C(C)C2O)no1 (stereo not drawn) [A59] | 5 | 5 | 5 | 5 | 5 | 5 | 5 | 5 | 5 | 5 | 5 | 5
6 | CCCC1=C(Cl)C(=O)N(c2noc(C(C)C)c2C#N)C1O (stereo not drawn) [A69] | 4 | 2 | 5 | 5 | 5 | 1 | 0 | 0 | 2 | 1 | 1 | 0
7 | CCCC1=C(Cl)C(=O)N(c2noc(C)c2C#N)C1O (stereo not drawn) [A70] | 2 | 3 | 5 | 5 | 5 | 1 | 0 | 1 | 5 | 4 | 3 | 1
8 | CCCC1=C(Br)C(=O)N(c2noc(C(C)(C)C#N)c2C#N)C1OC(=O)CC (stereo not drawn) [A74] | 5 | 5 | 5 | 5 | 5 | 5 | 5 | 4 | 5 | 5 | 5 | 4
9 | CC(=O)OC1C(C)=C(Cl)C(=O)N1c1cc(C(C)(C)C)on1 (stereo not drawn) [A75] | 5 | 5 | 5 | 5 | 5 | 5 | 5 | 4 | 5 | 4 | 4 | 3
10 | CC1=C(Cl)C(=O)N(c2cc(C(C)(C)C)on2)C1OC(=O)C(C)C (stereo not drawn) [A76] | 5 | 5 | 5 | 5 | 5 | 4 | 5 | 4 | 5 | 4 | 4 | 3
11 | CC1=C(Cl)C(=O)N(c2cc(C(C)(C)C)on2)C1OC(=O)C(C)(C)C (stereo not drawn) [A77] | 1 | 2 | 3 | 3 | 2 | 1 | 1 | 1 | 4 | 1 | 2 | 1
